The experiment deals with HFD-induced obese mice. Briefly: Serum lipids (TC, TG, HDL, LDL). Format: in vivo, C57BL/6J mouse. Particulars: 12 weeks, mean ± SEM. How it is done:
During the experimental period, the experimental group had free access to diet and drinking water. […] The same volume of PBS was administered to the negative control group and the positive control group. […] All mice were gavaged once a week for 12 weeks.
Blood samples were collected after 12 weeks of treatment from two mice from each experimental group in centrifuge tubes containing EDTA. Blood was drawn by puncturing the orbit through the orbit and within the orbit. Samples were centrifuged at 1200× for 15 minutes and incubated at 4° C. for 10 minutes. Serum aspartate aminotransferase (AST), alanine aminotransferase (ALT), TC, high-density lipoprotein (HDL), low-density lipoprotein (LDL) and TG were analyzed in the serum supernatant using an appropriate assay kit (Green Cross Biopharmaceutical, Yongin, Korea). The same samples were also used for hormone measurements.

Molecule `CCC(C)(C)C(=O)O[C@H]1C[C@@H](C)C=C2C=C[C@H](C)[C@H](CC[C@@H]3C[C@@H](O)CC(=O)O3)[C@H]21` [Simvastatin] gave a TC of 51.50 ± 1.50 mg/dL and a TG of 30.00 ± 5.00 mg/dL.

These data come from patent US12397023B2, “Composition comprising Lactococcus chungangensis for prevention or treatment of fatty liver or metabolic syndrome” (CHUNG ANG UNIVERSITY INDUSTRY ACADEMIC COOPERATION …, priority 2018, dated 2025).
